This is an account of results in patent US7320783B2, “Methods and compositions for the enhancement of wound healing” (The Regents of the University of Michigan, priority 2002, dated 2008).

Assay [1] relates to C57BL6Ksdb/db obese diabetic mouse dermal wounds. Particulars: topical; Livant et al. (2000) J. Clin. Invest. 105: 1537-1545; cited from earlier work.
In assay [2] the test system is human microvascular cells. Put plainly: SU-ECM in vitro invasion assay, human microvascular cells. The following applies: peptide 2, 6, 20, 60 ng/ml; 5% FCS; 4 hours on SU-ECM; FIG. 1. Format: cell-based. The text has this: (§1) About 1×10^5 human microvascular cells, neonatal fibroblasts, or undifferentiated human keratinocytes were suspended in medium containing 5% fetal calf serum (FCS), mixed with varying concentrations of the MMP 7 switch peptide, Ac-PRCGVPDVAEY-NH2 (Gaire et al., (1994) J. Biol. Chem. 269: 2032-2040), function-blocking anti human MMP 1 monoclonal antibody (Birkedal-Hansen et al., (1988) Biochemistry 27; 6751-6758), or total human IgG, and placed on the surfaces of SU-ECM in vitro invasion substrates. SU-ECM invasion substrates are made as described from sea urchin embryos, and contain a blastocoelic cavity enclosed by an intact basement membrane and associated extracellular matrix (Livant et al., (1995) Cancer Research 55, 5085-5093). After 4 hours of incubation (the time necessary to observe maximal invasion percentages), the invasion percentage in each assay was determined by microscopic examination of the SU-ECM invasion substrates and their associated cells at 400-fold magnification. Invasion percentages are the ratios of the numbers of cells located on the internal surfaces of SU-ECM to the total numbers of cells in contact with either the internal or the external surfaces of SU-ECM, and multiplied by 100.
(§2) Cell culture and SU-ECM invasion assays. […]

The test system of assay [3] is human neonatal fibroblasts. Put plainly: SU-ECM in vitro invasion assay, human neonatal fibroblasts. Format: cell-based. Particulars: peptide 2, 6, 20, 60 ng/ml; 5% FCS; 4 hours on SU-ECM; FIG. 3.
From the text: as §1, §2

Assay [4] has as its system undifferentiated human keratinocytes. Put plainly: SU-ECM in vitro invasion assay, human keratinocytes. The following applies: peptide 2, 6, 20, 60 ng/ml; 5% FCS; 4 hours on SU-ECM; FIG. 5. Format: cell-based.
From the text: as §1, §2

For assay [5], the system named is C57BL6Ksdb/db obese diabetic mouse dermal wounds. Description: Dermal wound healing in obese diabetic mice, topical application. Format: in vivo. The following applies: FIG. 7. The source says: X axis, days since wounding. Y axis, wound area, relative to the initial wound area (13 to 19 mm^2). Db/db: healing-impaired, homozygous db/db, obese diabetic mice; db/+: normally healing, heterozygous db/+, non-diabetic littermates. Mean wound areas are shown.
Peptides are further evaluated for their ability to stimulate the diabetic wound healing. The peptides are topically applied to duplicate dermal wounds in healing-impaired obese diabetic mice (Greenhalgh et al., (1990) Am. J. Pathol. 136: 1235-1246), according to published protocols (Livant et al., (2000) J. Clin. Invest. 105: 1537-1545). Wound closure times are determined in both treated and untreated mice. To confirm the importance of the cysteine switch residue, some wounds are treated with the C to S substituted peptides. To quantitate the extent of reepithelialization for several days wounding, wounds are excised, sectioned, stained, and examined microscopically. To evaluate the provisional matrix for indications of wound contraction and angiogenesis, the presence of activated fibroblasts, collagenous fibers, microvasculature, and wound macrophages is assessed in sectioned and stained wounds for several days following wounding as described (Livant et al., (2000) J. Clin. Invest. 105: 1537-1545). These assays are performed using peptides derived from MMP 1, MMP 2, MMP 7, and MMP 9.
Each treatment group consisted of 10 mice with duplicate, dermal wounds of 12.5 to 16.5 mm^2 made in the shoulder area. Complete methods were as described (Livant et al., (2000) J. Clin. Invest. 105: 1537-1545). Treated animal were treated with 10 μg switch (PRC) sequence from MMP2 (Ac-PRCGNPDVANY-NH2) (SEQ ID NO:3). Wound areas were measured by integration of digital images.

Setting [6] is: one topical treatment with 10 μg just after wounding.

Regarding Ac-PHSRN-NH2 (listed as Homo sapiens), the “stimulation of dermal wound healing in obese diabetic C57BL6Ksdb/db mice” value in assay [1] is recorded as “potent topical agent for stimulating dermal wound healing”.
With “Ac-PRCGVPDVAEY-NH2 (listed as Homo sapiens) [MMP 7 switch peptide, MMP 7 prodomain cysteine switch peptide]”, the “induction of human microvascular cell invasion (percent of cells invaded)” value in assay [2] is reported as “induces dose-dependent invasion”. For the same substance, the “induction of human neonatal fibroblast invasion (percent of fibroblasts invaded)” value in assay [3] is reported as “induces dose-dependent invasion”. The “induction of human keratinocyte invasion (percent of keratinocytes invaded)” value in assay [4] is “induces dose-dependent invasion”.
In the case of “Ac-PRCGNPDVANY-NH2 (listed as Homo sapiens) [PRC peptide]”, in assay [5] (setting [6]), the “decrease of the time required for closure of all db/db wounds, relative to untreated db/db mice” value was determined as 50% and the “rapidity of closure of treated db/db wounds compared with db/+ non-diabetic mice” value is given as “as rapid as that of db/+ non-diabetic mice”. For the same substance, in assay [5] (single topical application), the “enhancement of db/db wound healing (wound area relative to the initial wound area)” value was “enhancement”.
